From patent publication US20250195528A1, “DOSE REGIMEN OF VICASINABIN” (Hoffmann-La Roche Inc., priority 2022, published 2025)
Entries after “also recorded” stand apart in the source; their conditions may differ.

Biological target: T1, CB2 receptor on B-cells (Homo sapiens, UniProt P34972)
T1 construct: B cells show a low but robust surface expression of CB2; endogenous in cells; host or cells: B cells in human whole blood (healthy participants, diabetic patients)
Experiment: CB2 receptor target engagement on B-cells in blood of participants of Study BP40387
Assay type: in vivo
Method: In the Phase I single ascending dose (SAD) and multiple ascending dose (MAD) study (BP40387), CB2R-TE was measured in blood from healthy participants that received single and multiple 0.75-300 mg doses of RO6868847. Based on clinical RO6868847 pharmacokinetics (PK) and pharmacodynamics (PD; measured by CB2R-TE) data and accounting for the difference between healthy and diabetics subjects, the lower end of the 0.75 mg to 300 mg-dose range is expected to achieve approximately up to half-maximum CB2R-TE, whereas the higher end of that dose range is predicted to achieve maximum CB2R-TE.
In example 2, target engagement of RO6868847 was assessed on circulating B-cells from whole blood samples utilizing a newly developed exploratory flow cytometry assay to monitor RO6868847-induced CB2 receptor internalization on B-cells. […] Upon treatment discontinuation CB2 receptor surface expression returned to baseline approximately within 1 week. Target engagement appeared to reach a plateau at doses of 100 mg RO6868847 with only marginal increases at higher doses of RO6868847. In example 2, pro-inflammatory cytokine production was induced by ex vivo stimulation with LPS in freshly obtained whole blood samples, to measure downstream markers of RO6868847-mediated CB2 receptor internalization and explore its pharmacological profile. Serum levels of TNF-α, G-CSF, IL-1β, and […], of participants in Study BP40387 were assessed to investigate the changes of these cytokines in the presence of repeated dose administration of up to 300 mg RO6868847 once-daily for 14 days. […] It should be noted that the IL1-β analysis was negatively affected by a substantial proportion of baseline data, not being reportable (see FIG. 8), especially at the highest tested doses of 300 mg of RO6868847. Substantial variability in these measurements was observed. However, this was expected and no dedicated predefined statistical analysis was performed since cohort sizes were small for this exploratory assessment.

T1 sequence (P34972 whole entry): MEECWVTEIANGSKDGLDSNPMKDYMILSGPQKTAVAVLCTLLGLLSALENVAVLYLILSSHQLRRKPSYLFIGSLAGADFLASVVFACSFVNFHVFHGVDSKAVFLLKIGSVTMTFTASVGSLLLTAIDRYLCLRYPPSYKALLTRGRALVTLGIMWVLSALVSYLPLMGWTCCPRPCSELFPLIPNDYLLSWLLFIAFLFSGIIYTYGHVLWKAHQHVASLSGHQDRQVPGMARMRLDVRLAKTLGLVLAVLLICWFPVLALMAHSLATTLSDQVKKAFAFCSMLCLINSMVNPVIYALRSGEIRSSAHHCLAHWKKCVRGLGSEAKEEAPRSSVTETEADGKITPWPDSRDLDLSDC

Cn1nnnc1Cn1nnc2c(N3CC[C@H](O)C3)nc(C(C)(C)C)nc21 [RO6868847, (3S)-1-[5-tert-butyl-3-[(1-methyltetrazol-5-yl)methyl]triazolo[4,5-d]pyrimidin-7-yl]pyrrolidin-3-ol]
time for CB2 receptor surface expression to return to baseline (after treatment discontinuation): ≤ 1 week
dose at which target engagement reaches a plateau (multiple dose): 100 mg
CB2 receptor target engagement on B-cells in blood (single and multiple oral doses up to 300 mg): reversible, dose-dependent and sustained; also recorded: dose-dependent, long-lasting, but reversible
